Measurements as given in publication PMC10879502, “Linking ATP and allosteric sites to achieve superadditive binding with bivalent EGFR kinase inhibitors” (Communications Chemistry, 2024).
Values joined by “and” are separate entries in the source; they are usually repeats but may differ in a detail not shown here. Equal values may be shown once. Read-outs that look alike come from different tables or passages of the source.

How the values were obtained:
[1] = target: T1, EGFR L858R/T790M/C797S (LRTMCS) kinase domain (Homo sapiens, UniProt P00533, C797S/L858R/T790M); assay: HTRF KinEASE-TK kinase activity assay; assay type: biochemical
T1 construct: The EGFR kinase domain (residues 696–1022) was cloned into pTriEx; 6xHis (N, cleaved yes); GST (N, cleaved yes); made in house; host or cells: SF9 insect cells, baculovirus

[2] = system: Ba/F3 cells, L858R EGFR; assay: Ba/F3 resazurin antiproliferative assay; assay type: cell-based; conditions: Mus musculus, BaF3, 72 h, Ba/F3, 72 h; read-out: EGFR EC50, LR
Experimental: (§1) H1975 and HCC827 cells were obtained from the lab of Dr. Pasi Jänne (Dana-Farber Cancer Institute, 2022) cultured at 37 °C in RPMI 1640 media (Corning, 1004-CV) supplemented with 10% fetal bovine serum (Tissue Culture Biologicals, 35-010-CV) and 1% penicillin and streptomycin (P/S, Corning, 30-002-CI) and seeded overnight in a 96-well plate at a density of 60000 cells/mL. Cells were dosed with inhibitors to a final DMSO 0.5% in triplicate for 37 °C for 72 h. Cellular inhibition of growth was assessed by MTT viability assay according to the manufactures protocol (OZ Biosciences). Parental Ba/F3 cells was a generous gift from the laboratory of Dr. David Weinstock (in 2014), Dr. Pasi Jänne (2020) both of the Dana-Farber Cancer Institute and was used to generate the wildtype EGFR, L858R, and L858R/T790M EGFR mutant Ba/F3 cells[52],[67]. Ba/F3 cells were all cultured in RPMI1640 media with 10% fetal bovine serum and 1% penicillin and streptomycin. The Ba/F3 cell lines were tested negative for Mycoplasma using Mycoplasma Plus PCR Primer Set (Agilent) and were passaged and/or used for no longer than 4 weeks for all experiments. Assay reagents were purchased from MilliporeSigma (Cat# R7017-5G). Ba/F3 cells were plated and treated with increasing concentrations of inhibitors in triplicate for 72 h. Compounds were dispensed using the Tecan D300e Digital Dispenser. […] All experiments were repeated at least 3 times and values were reported as an average with standard deviation.

[3] = system: Ba/F3 cells, L858R/T790M EGFR; assay: Ba/F3 resazurin antiproliferative assay; assay type: cell-based; conditions: Mus musculus, BaF3; Ba/F3, 72 h; read-out: EGFR EC50, LR/TM
Experimental: as §1

[4] = system: Ba/F3 cells, LR/TM/CS EGFR; assay: Ba/F3 resazurin antiproliferative assay; assay type: cell-based; conditions: Mus musculus, BaF3; Ba/F3, 72 h
Experimental: as §1

[5] = system: Ba/F3 cells, wildtype EGFR; assay: Ba/F3 resazurin antiproliferative assay; assay type: cell-based; conditions: Mus musculus, BaF3; Ba/F3, 72 h; read-out: EGFR EC50, wt
Experimental: as §1

[6] = system: EGFR phosphorylation (pY1068) in H1975 cells; assay: Western blot; assay type: cell-based, human
Experimental: H1975, H3255, H3255GR and HCC827 lung adenocarcinoma cells (obtained from Dr. Pasi Jänne in Dana-Farber Cancer Institute, 2022) were cultured in RPMI 1640 media (Corning, 1004-CV) supplemented with 10% FBS (Tissue Culture Biologicals, 35-010-CV) and 1% penicillin-streptomycin (P/S, Corning, 30-002-CI). All cell lines were tested negative for Mycoplasma using Myco-Sniff-Rapid™ Mycoplasma Luciferase Detection Kit Plus PCR Primer Set (MP biomedicals, 0930504-CF) and were passaged and/or used for no longer than 4 weeks for all experiments H1975 and HCC-827 cells were seeded in 6-well plates with 400,000 cells per well and incubated overnight. H3255 and H3255GR cells were seeded in 12-well plates with 200,000 cells per well and were grown to confluency after 48 h. Culture medium was removed, cells washed with PBS, and lysed with lysis buffer containing 5 M NaCl, 1 M TRIS pH 8.0, 10% SDS, 10% Triton X-100 and a tablet of protease and phosphatase inhibitor. Protein lysate concentration was analyzed using Pierce BCA kit (ThermoFisher, 23225). Protein samples (10 µg) were resolved on hand-cast Criterion Tris-HCl protein gels. Primary antibodies used; phospho-EGFR (Tyr1068; #2234, 1:1,000), EGFR (#4267; 1:1,000), phospho-AKT (Ser473; #4060, 1:1,000), AKT (#9272, 1:1,000), phospho-ERK1/2 (Thr202/Tyr204; #4370, 1:1,000), and ERK1/2 (#4695, 1:1,000) antibodies; were purchased from Cell Signaling Technology. Secondary Goat anti-rabbit IgG starbright blue 700 (Biorad, 64484700) and Anti-tubulin hFAB Rhodamine Tubulin (Bio-Rad, 64512248). Western blots were visualized with the ChemiDoc MP imager (Bio-Rad) utilizing the Image Lab Touch Software (version 2.4.0.03). All Western blot images are representatives of at least 3 independent replicate experiments.

[7] = target: AKT3 (Homo sapiens, UniProt Q9Y243); assay: KINOMEscan; assay type: binding; conditions: 1 μM
[8] = target: CDK3 (Homo sapiens, UniProt Q00526); assay: KINOMEscan; assay type: binding; conditions: 1 μM
[9] = system: FLT3(ITD); assay: KINOMEscan; assay type: binding; conditions: 1 μM
[10] = target: T2, MRCKB (Homo sapiens, UniProt Q9Y5S2); assay: KINOMEscan; assay type: binding; conditions: 1 μM
T2 construct: purchased Eurofins DiscoverX Corporation

[11] = target: T3, MST1R (Homo sapiens, UniProt Q04912); assay: KINOMEscan; assay type: binding; conditions: 1 μM
T3 construct: purchased Eurofins DiscoverX Corporation

[12] = target: T4, NEK2 (Homo sapiens, UniProt P51955); assay: KINOMEscan; assay type: binding; conditions: 1 μM
T4 construct: purchased Eurofins DiscoverX Corporation

[13] = target: PFTK1 (Homo sapiens, UniProt O94921); assay: KINOMEscan; assay type: binding; conditions: 1 μM
[14] = target: ROS1 (Homo sapiens, UniProt P08922); assay: KINOMEscan; assay type: binding; conditions: 1 μM
[15] = target: RSK2(Kin.Dom.1-N-terminal) (Homo sapiens, UniProt P51812); assay: KINOMEscan; assay type: binding; conditions: 1 μM
[16] = target: STK35 (Homo sapiens, UniProt Q8TDR2); assay: KINOMEscan; assay type: binding; conditions: 1 μM
[17] = target: T5, TGFBR2 (Homo sapiens, UniProt P37173); assay: KINOMEscan; assay type: binding; conditions: 1 μM
T5 construct: purchased Eurofins DiscoverX Corporation

[18] = enzyme 0.02 nM, ATP 100 µM, read-out: Biochemical EGFR IC50, LRTMCS

ROS1, sequence (P08922 28-2347): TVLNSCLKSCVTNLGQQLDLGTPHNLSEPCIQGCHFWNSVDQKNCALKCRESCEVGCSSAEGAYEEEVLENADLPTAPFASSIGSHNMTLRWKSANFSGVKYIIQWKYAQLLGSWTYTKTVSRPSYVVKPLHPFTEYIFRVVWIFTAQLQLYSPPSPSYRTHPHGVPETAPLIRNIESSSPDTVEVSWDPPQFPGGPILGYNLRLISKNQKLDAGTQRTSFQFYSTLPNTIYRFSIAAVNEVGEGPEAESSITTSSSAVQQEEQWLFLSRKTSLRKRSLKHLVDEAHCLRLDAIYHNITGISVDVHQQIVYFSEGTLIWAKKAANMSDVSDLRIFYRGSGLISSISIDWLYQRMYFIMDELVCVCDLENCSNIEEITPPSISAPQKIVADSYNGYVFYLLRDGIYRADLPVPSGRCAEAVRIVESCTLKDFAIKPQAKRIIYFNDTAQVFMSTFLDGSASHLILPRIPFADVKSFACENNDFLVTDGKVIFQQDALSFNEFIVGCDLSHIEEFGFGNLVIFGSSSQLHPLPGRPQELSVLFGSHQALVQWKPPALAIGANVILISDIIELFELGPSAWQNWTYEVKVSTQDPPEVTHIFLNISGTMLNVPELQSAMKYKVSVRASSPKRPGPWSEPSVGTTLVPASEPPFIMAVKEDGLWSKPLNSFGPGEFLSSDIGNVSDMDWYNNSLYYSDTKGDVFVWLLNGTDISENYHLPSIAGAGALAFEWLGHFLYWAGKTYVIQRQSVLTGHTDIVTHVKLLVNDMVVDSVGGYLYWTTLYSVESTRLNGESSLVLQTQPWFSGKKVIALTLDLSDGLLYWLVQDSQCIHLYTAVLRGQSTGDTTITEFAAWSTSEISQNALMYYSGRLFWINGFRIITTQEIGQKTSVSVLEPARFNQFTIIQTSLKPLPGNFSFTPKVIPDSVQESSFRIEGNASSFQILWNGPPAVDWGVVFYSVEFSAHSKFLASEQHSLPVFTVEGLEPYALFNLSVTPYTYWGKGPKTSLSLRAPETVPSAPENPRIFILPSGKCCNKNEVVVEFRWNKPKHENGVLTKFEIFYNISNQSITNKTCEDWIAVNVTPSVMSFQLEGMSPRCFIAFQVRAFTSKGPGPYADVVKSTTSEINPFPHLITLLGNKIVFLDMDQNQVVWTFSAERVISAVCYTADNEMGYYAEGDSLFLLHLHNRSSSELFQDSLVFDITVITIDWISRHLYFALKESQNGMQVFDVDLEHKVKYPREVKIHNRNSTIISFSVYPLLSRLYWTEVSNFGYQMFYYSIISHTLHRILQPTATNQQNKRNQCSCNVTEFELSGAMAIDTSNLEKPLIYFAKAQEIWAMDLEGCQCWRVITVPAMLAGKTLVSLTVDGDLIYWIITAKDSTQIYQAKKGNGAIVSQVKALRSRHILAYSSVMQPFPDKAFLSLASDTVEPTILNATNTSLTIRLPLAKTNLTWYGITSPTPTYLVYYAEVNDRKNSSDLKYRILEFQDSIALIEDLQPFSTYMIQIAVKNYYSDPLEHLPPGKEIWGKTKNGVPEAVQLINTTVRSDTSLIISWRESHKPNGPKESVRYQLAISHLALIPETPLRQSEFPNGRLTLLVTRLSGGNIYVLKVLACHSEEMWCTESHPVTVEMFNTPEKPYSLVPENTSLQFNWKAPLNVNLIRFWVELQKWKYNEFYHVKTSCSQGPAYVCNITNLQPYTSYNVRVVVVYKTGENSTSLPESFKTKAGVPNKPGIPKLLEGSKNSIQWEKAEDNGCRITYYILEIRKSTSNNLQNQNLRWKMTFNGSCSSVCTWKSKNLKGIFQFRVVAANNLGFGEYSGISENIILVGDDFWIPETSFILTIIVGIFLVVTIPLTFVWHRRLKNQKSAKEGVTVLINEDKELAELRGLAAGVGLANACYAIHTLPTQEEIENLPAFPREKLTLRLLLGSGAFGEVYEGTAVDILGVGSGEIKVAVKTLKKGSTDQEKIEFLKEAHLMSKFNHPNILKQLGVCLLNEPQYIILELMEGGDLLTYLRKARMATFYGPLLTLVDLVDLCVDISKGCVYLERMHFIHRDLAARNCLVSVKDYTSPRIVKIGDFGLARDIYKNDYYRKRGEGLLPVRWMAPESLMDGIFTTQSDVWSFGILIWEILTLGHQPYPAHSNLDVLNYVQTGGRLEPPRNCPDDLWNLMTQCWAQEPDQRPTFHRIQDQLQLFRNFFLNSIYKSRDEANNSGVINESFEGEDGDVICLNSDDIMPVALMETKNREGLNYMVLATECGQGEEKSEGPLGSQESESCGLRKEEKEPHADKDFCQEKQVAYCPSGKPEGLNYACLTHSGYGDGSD
T3 sequence (Q04912 25-1400): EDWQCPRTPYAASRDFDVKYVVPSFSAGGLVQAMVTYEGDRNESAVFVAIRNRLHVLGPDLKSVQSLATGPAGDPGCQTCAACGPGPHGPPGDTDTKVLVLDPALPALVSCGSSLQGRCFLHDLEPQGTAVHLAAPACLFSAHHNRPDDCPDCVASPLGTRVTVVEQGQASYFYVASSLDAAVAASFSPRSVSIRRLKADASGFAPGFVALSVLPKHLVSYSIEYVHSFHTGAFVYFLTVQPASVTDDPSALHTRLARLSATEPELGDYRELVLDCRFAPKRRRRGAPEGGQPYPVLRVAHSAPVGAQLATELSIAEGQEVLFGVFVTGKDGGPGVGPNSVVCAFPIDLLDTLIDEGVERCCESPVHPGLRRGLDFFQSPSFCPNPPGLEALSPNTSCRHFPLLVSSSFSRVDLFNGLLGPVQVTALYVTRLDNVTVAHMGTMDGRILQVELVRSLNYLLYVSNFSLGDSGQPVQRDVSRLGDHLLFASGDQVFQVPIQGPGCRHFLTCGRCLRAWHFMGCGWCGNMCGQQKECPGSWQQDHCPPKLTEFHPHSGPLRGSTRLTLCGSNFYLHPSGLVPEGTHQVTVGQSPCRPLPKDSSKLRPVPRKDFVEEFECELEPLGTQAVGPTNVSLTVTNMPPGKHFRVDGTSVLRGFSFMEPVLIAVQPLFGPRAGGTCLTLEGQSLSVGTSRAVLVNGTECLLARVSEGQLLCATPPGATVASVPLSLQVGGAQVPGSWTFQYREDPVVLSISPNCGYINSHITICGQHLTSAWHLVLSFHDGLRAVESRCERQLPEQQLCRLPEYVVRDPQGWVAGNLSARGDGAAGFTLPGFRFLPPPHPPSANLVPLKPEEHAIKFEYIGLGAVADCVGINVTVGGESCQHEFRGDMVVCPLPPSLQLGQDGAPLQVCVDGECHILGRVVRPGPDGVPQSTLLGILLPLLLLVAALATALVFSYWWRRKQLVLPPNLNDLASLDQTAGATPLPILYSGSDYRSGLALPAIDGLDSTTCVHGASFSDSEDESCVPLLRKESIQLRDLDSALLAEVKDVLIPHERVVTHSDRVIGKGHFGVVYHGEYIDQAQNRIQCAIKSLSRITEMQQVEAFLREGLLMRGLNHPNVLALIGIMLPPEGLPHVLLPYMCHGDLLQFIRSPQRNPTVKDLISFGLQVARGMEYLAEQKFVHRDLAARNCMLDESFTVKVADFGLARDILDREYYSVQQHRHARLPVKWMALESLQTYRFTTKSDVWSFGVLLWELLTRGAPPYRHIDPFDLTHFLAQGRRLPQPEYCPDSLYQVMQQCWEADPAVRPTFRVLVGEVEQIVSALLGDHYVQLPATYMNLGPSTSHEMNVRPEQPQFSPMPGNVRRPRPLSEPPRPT
T5 sequence (P37173 23-567): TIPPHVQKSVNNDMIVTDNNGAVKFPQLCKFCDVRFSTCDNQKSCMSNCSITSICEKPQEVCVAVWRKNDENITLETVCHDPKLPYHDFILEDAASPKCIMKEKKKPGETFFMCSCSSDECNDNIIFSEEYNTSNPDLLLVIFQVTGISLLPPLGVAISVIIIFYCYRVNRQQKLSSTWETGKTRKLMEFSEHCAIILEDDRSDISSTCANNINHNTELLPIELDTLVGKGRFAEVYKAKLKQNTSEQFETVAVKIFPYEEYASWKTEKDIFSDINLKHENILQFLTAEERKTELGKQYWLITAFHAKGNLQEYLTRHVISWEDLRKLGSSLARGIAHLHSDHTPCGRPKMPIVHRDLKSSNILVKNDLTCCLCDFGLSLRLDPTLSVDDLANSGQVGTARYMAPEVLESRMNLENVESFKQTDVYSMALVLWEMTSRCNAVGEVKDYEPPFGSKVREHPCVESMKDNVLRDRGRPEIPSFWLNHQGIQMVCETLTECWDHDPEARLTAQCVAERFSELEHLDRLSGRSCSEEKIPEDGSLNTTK
STK35, sequence (Q8TDR2 whole entry): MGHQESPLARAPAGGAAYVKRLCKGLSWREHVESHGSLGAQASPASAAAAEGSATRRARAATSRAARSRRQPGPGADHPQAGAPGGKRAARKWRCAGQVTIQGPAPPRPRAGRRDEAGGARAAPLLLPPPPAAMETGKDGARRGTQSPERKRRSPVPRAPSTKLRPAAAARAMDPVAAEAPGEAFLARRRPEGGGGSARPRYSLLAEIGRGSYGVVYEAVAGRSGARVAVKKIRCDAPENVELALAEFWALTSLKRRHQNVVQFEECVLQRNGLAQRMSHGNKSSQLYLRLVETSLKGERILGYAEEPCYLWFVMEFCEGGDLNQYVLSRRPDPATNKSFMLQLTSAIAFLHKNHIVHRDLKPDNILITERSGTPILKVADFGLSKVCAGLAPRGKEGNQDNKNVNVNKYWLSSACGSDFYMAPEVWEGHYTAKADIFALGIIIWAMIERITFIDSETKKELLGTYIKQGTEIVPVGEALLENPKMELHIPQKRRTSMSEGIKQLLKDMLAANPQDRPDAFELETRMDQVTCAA
RSK2(Kin.Dom.1-N-terminal), sequence (P51812 68-327 limits assumed): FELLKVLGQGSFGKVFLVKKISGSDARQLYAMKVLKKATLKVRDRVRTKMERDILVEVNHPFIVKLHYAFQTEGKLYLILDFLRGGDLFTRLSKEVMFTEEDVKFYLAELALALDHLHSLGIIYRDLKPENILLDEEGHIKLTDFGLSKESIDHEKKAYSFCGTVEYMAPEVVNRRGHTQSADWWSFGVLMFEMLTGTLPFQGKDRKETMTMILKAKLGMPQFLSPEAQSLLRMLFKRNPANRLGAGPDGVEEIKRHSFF

SMILES: CSc1nc(-c2cccc(NC(=O)c3cccc4c3NC(=O)c3ccccc3N4)c2)c(-c2ccnc(NC(C)=O)c2)[nH]1 [Compound 2]
- activity ([1]; LRTMCS, [Inhibitor] 1.3e-5 nM, read-out: percent inhibition): 93.5% and 92.2% and 100%
- activity ([1]; LRTMCS, [Inhibitor] 3.18e-5 nM, read-out: percent inhibition): 90.3% (2×) and 95.9%
- activity ([1]; LRTMCS, [Inhibitor] 7.78e-5 nM, read-out: percent inhibition): 71% and 67.2% and 70.8%
- activity at 190.4 fM ([1]; LRTMCS, [Inhibitor] 0.000190441 nM, read-out: percent inhibition): 39.1%
- activity at 466 fM ([1]; LRTMCS, [Inhibitor] 0.000465979 nM, read-out: percent inhibition): 22.7%
- activity at 1.14 pM ([1]; LRTMCS, [Inhibitor] 0.00114018 nM, read-out: percent inhibition): 13.5%
- activity at 2.79 pM ([1]; LRTMCS, [Inhibitor] 0.00278983 nM, read-out: percent inhibition): 8.55%
- activity at 6.826 pM ([1]; LRTMCS, [Inhibitor] 0.00682626 nM, read-out: percent inhibition): 4.28%
- activity at 16.7 pM ([1]; LRTMCS, [Inhibitor] 0.0167028 nM, read-out: percent inhibition): 1.88%
- IC50 [1, 18]: 0.064 ± 0.004 nM
- IC50 ([1]; read-out: IC50, LRTMCS): 0.051 to 0.064 nM
- EC50 [2]: 5300 nM
- EC50 [3]: > 10000 nM
- EC50 [4]: 6500 nM
- EC50 [5]: 5100 nM
- suppression of EGFR phosphorylation ([6]; H1975, 6 h): also effective in H1975 cells, however to a lesser extent than 4

SMILES: C=CC(=O)Nc1ccc(OC)c(Nc2cc(-c3[nH]c(CC)nc3-c3cccc(NC(=O)c4cccc5c4NC(=O)c4ccccc4N5)c3)ccn2)c1 [Compound 4]
- IC50 [1, 18]: 1.8 ± 0.3 nM
- IC50 improvement over orthosteric-only 7, LRTMCS ([1]; reversible inhibition): 100 fold
- EC50 [2]: 220 nM
- EC50 [3]: 770 nM
- EC50 [4]: > 10000 nM
- EC50 [5]: 950 nM
- concentration suppressing LRTM phosphorylation (pY1068), pERK and pAKT ([6]; H1975, dosed for 6 h): below 1 µM
- POC [7]: 100% of control
- POC [8]: 100% of control
- POC [9]: 100% of control
- POC [10]: 1.7% of control
- POC [11]: 85% of control
- POC [12]: 98% of control
- POC [13]: 90% of control
- POC [14]: 80% of control
- POC [15]: 100% of control
- POC [16]: 69% of control
- POC [17]: 75% of control
